Reference: PubChem BioAssay (NCI)
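In this assay, cells in 96-well plates receive the compound at five concentrations for 48 hours. Endpoints are linearly interpolated between the surrounding concentrations. The concentration for 50% growth inhibition is given as GI50. Definition used: TGI = concentration required for complete inhibition of growth.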

How the values were obtained:
Test in all cases: NCI tumour cell line growth inhibition, 48 h
786-0 renal = test system: 786-0 renal
A498 renal = test system: A498 renal
A549 NSCLC = test system: A549 NSCLC
ACHN renal = test system: ACHN renal
BT-549 breast = test system: BT-549 breast
CAKI-1 renal = test system: CAKI-1 renal
CCRF-CEM leukemia = test system: CCRF-CEM leukemia
COLO 205 colon = test system: COLO 205 colon
DU-145 prostate = test system: DU-145 prostate
EKVX NSCLC = test system: EKVX NSCLC
HCC-2998 colon = test system: HCC-2998 colon
HCT-116 colon = test system: HCT-116 colon
HCT-15 colon = test system: HCT-15 colon
HL-60(TB) leukemia = test system: HL-60(TB) leukemia
HOP-62 NSCLC = test system: HOP-62 NSCLC
HOP-92 NSCLC = test system: HOP-92 NSCLC
HS 578T breast = test system: HS 578T breast
HT29 colon = test system: HT29 colon
IGROV1 ovarian = test system: IGROV1 ovarian
K-562 leukemia = test system: K-562 leukemia
KM12 colon = test system: KM12 colon
LOX IMVI melanoma = test system: LOX IMVI melanoma
M14 melanoma = test system: M14 melanoma
MALME-3M melanoma = test system: MALME-3M melanoma
MCF7 breast = test system: MCF7 breast
MDA-MB-231 breast = test system: MDA-MB-231 breast
MDA-MB-435 = test system: MDA-MB-435
MOLT-4 leukemia = test system: MOLT-4 leukemia
NCI-H226 lung = test system: NCI-H226 lung
NCI-H23 lung = test system: NCI-H23 lung
NCI-H460 lung = test system: NCI-H460 lung
NCI-H522 lung = test system: NCI-H522 lung
NCI/ADR-RES ovarian = test system: NCI/ADR-RES ovarian
OVCAR-3 ovarian = test system: OVCAR-3 ovarian
OVCAR-4 ovarian = test system: OVCAR-4 ovarian
OVCAR-5 ovarian = test system: OVCAR-5 ovarian
PC-3 prostate = test system: PC-3 prostate
RPMI-8226 leukemia = test system: RPMI-8226 leukemia
RXF 393 renal = test system: RXF 393 renal
SF-268 CNS = test system: SF-268 CNS
SF-295 CNS = test system: SF-295 CNS
SF-539 CNS = test system: SF-539 CNS
SK-MEL-2 melanoma = test system: SK-MEL-2 melanoma
SK-MEL-28 melanoma = test system: SK-MEL-28 melanoma
SK-MEL-5 melanoma = test system: SK-MEL-5 melanoma
SK-OV-3 ovarian = test system: SK-OV-3 ovarian
SN12C renal = test system: SN12C renal
SNB-19 CNS = test system: SNB-19 CNS
SNB-75 CNS = test system: SNB-75 CNS
SR leukemia = test system: SR leukemia
SW-620 colon = test system: SW-620 colon
T-47D breast = test system: T-47D breast
TK-10 renal = test system: TK-10 renal
U251 CNS = test system: U251 CNS
UACC-257 melanoma = test system: UACC-257 melanoma
UACC-62 melanoma = test system: UACC-62 melanoma
UO-31 renal = test system: UO-31 renal
OVCAR-8 ovarian = test system: OVCAR-8 ovarian

## CC(C)OC(=O)c1cc(NS(=O)(=O)c2ccc3ccccc3c2)cc(C(=O)OC(C)C)c1
786-0 renal
  GI50: 30.9 µM
  TGI: > 100 µM
A498 renal
  GI50: 17.2 µM
  TGI: 54.9 µM
A549 NSCLC
  GI50: 27.1 µM
  TGI: 93.5 µM
ACHN renal
  GI50: 33.1 µM
  TGI: > 100 µM
BT-549 breast
  GI50: 17.2 µM
  TGI: 43.2 µM
CAKI-1 renal
  GI50: 36.4 µM
  TGI: > 100 µM
CCRF-CEM leukemia
  GI50: 22.5 µM
  TGI: 88.9 µM
COLO 205 colon
  GI50: 16 µM
  TGI: 34.3 µM
DU-145 prostate
  GI50: 28.8 µM
  TGI: > 100 µM
EKVX NSCLC
  GI50: 25 µM
  TGI: 89.2 µM
HCC-2998 colon
  GI50: 17.3 µM
  TGI: 47.2 µM
HCT-116 colon
  GI50: 24.2 µM
  TGI: > 100 µM
HCT-15 colon
  GI50: 28.4 µM
  TGI: > 100 µM
HL-60(TB) leukemia
  GI50: 24.2 µM
  TGI: 65.8 µM
HOP-62 NSCLC
  GI50: 33.1 µM
  TGI: > 100 µM
HOP-92 NSCLC
  GI50: 24.9 µM
  TGI: 64.9 µM
HS 578T breast
  GI50: 20.7 µM
  TGI: 49.8 µM
HT29 colon
  GI50: 34.1 µM
  TGI: > 100 µM
IGROV1 ovarian
  GI50: 35.2 µM
  TGI: > 100 µM
K-562 leukemia
  GI50: 29.6 µM
  TGI: > 100 µM
KM12 colon
  GI50: 32.3 µM
  TGI: > 100 µM
LOX IMVI melanoma
  GI50: 28.5 µM
  TGI: > 100 µM
M14 melanoma
  GI50: 17.6 µM
  TGI: 46.8 µM
MALME-3M melanoma
  GI50: 32.7 µM
  TGI: > 100 µM
MCF7 breast
  GI50: 12.3 µM
  TGI: 45.3 µM
MDA-MB-231 breast
  GI50: 21.4 µM
  TGI: 76.5 µM
MDA-MB-435
  GI50: 23.1 µM
  TGI: 73.2 µM
MOLT-4 leukemia
  GI50: 22 µM
  TGI: 63.4 µM
NCI-H226 lung
  GI50: 26.8 µM
  TGI: > 100 µM
NCI-H23 lung
  GI50: 21.9 µM
  TGI: 73.9 µM
NCI-H460 lung
  GI50: 13.4 µM
  TGI: 38.8 µM
NCI-H522 lung
  GI50: 18.3 µM
  TGI: 45.9 µM
NCI/ADR-RES ovarian
  GI50: 16.3 µM
  TGI: 56.6 µM
OVCAR-3 ovarian
  GI50: 24 µM
  TGI: 94.7 µM
OVCAR-4 ovarian
  GI50: 22 µM
  TGI: 82.3 µM
OVCAR-5 ovarian
  GI50: 18.3 µM
  TGI: 48.8 µM
PC-3 prostate
  GI50: 23.8 µM
  TGI: 91.8 µM
RPMI-8226 leukemia
  GI50: 15.6 µM
  TGI: 45.3 µM
RXF 393 renal
  GI50: 20.9 µM
  TGI: > 100 µM
SF-268 CNS
  GI50: 15.8 µM
  TGI: 57.3 µM
SF-295 CNS
  GI50: 22.2 µM
  TGI: 79.7 µM
SF-539 CNS
  GI50: 24.6 µM
  TGI: 61.3 µM
SK-MEL-2 melanoma
  GI50: 26.2 µM
  TGI: 73.6 µM
SK-MEL-28 melanoma
  GI50: 24.6 µM
  TGI: 73.2 µM
SK-MEL-5 melanoma
  GI50: 16 µM
  TGI: 31.8 µM
SK-OV-3 ovarian
  GI50: 32.3 µM
  TGI: > 100 µM
SN12C renal
  GI50: 29.9 µM
  TGI: > 100 µM
SNB-19 CNS
  GI50: 33.5 µM
  TGI: > 100 µM
SNB-75 CNS
  GI50: 23.9 µM
  TGI: 66.2 µM
SR leukemia
  GI50: 24.5 µM
  TGI: 76.2 µM
SW-620 colon
  GI50: 30.3 µM
  TGI: > 100 µM
T-47D breast
  GI50: 17.6 µM
  TGI: 58.5 µM
TK-10 renal
  GI50: 45.2 µM
  TGI: > 100 µM
U251 CNS
  GI50: 31.7 µM
  TGI: > 100 µM
UACC-257 melanoma
  GI50: 30.5 µM
  TGI: > 100 µM
UACC-62 melanoma
  GI50: 17 µM
  TGI: 48.6 µM
UO-31 renal
  GI50: 26.4 µM
  TGI: > 100 µM

## C[C@]12CCC(=O)CC1CC[C@@H]1C2CC[C@@]2(C)C1CC[C@@H]2OC(=O)CC[Se][Se]CCC(=O)O[C@H]1CCC2[C@@H]3CCC4CC(=O)CC[C@]4(C)C3CC[C@@]21C (some centres not stated)
786-0 renal
  GI50: 3.25 µM
  TGI: 9.36 µM
A498 renal
  GI50: 1.76 µM
  TGI: 4.15 µM
A549 NSCLC
  GI50: 1.94 µM
  TGI: 4.39 µM
ACHN renal
  GI50: 3.61 µM
  TGI: 13.2 µM
BT-549 breast
  GI50: 2.1 µM
  TGI: 4.52 µM
CAKI-1 renal
  GI50: 1.64 µM
  TGI: 5.09 µM
CCRF-CEM leukemia
  GI50: 3.54 µM
  TGI: > 100 µM
COLO 205 colon
  GI50: 2.17 µM
  TGI: 4.01 µM
DU-145 prostate
  GI50: 2.19 µM
  TGI: 5.05 µM
EKVX NSCLC
  GI50: 2.44 µM
HCC-2998 colon
  GI50: 13.4 µM
  TGI: 31.6 µM
HCT-116 colon
  GI50: 2.01 µM
  TGI: 4.16 µM
HCT-15 colon
  GI50: 3.64 µM
  TGI: 16 µM
HL-60(TB) leukemia
  GI50: 4.15 µM
  TGI: > 100 µM
HOP-62 NSCLC
  GI50: 2.52 µM
  TGI: 5.34 µM
HOP-92 NSCLC
  GI50: 2.22 µM
  TGI: 6.04 µM
HS 578T breast
  GI50: 2.02 µM
  TGI: 7.79 µM
HT29 colon
  GI50: 2.5 µM
  TGI: 6.01 µM
IGROV1 ovarian
  GI50: 2.13 µM
  TGI: 4.3 µM
K-562 leukemia
  GI50: 10 µM
  TGI: > 100 µM
KM12 colon
  GI50: 4.09 µM
  TGI: 14.5 µM
LOX IMVI melanoma
  GI50: 2.12 µM
  TGI: 5.07 µM
M14 melanoma
  GI50: 2.28 µM
  TGI: 5.69 µM
MALME-3M melanoma
  GI50: 1.83 µM
  TGI: 3.63 µM
MCF7 breast
  GI50: 3.85 µM
  TGI: 12 µM
MDA-MB-231 breast
  GI50: 1.57 µM
  TGI: 3.36 µM
MDA-MB-435
  GI50: 1.82 µM
  TGI: 3.83 µM
MOLT-4 leukemia
  GI50: 4.67 µM
  TGI: > 100 µM
NCI-H226 lung
  GI50: 2.25 µM
  TGI: 5.79 µM
NCI-H23 lung
  GI50: 3.63 µM
  TGI: 18.4 µM
NCI-H460 lung
  GI50: 2.84 µM
  TGI: 9.81 µM
NCI-H522 lung
  GI50: 3.17 µM
  TGI: 10.9 µM
NCI/ADR-RES ovarian
  GI50: 3.03 µM
  TGI: 11.4 µM
OVCAR-3 ovarian
  GI50: 2.73 µM
  TGI: 6.84 µM
OVCAR-4 ovarian
  GI50: 3.51 µM
  TGI: 15.6 µM
OVCAR-5 ovarian
  GI50: 6.5 µM
  TGI: 25.1 µM
OVCAR-8 ovarian
  GI50: 3.06 µM
  TGI: 9.84 µM
PC-3 prostate
  GI50: 2.55 µM
  TGI: 8.27 µM
RPMI-8226 leukemia
  GI50: 5.03 µM
  TGI: > 100 µM
RXF 393 renal
  GI50: 2.08 µM
  TGI: 7.95 µM
SF-268 CNS
  GI50: 1.86 µM
  TGI: 3.79 µM
SF-539 CNS
  GI50: 3.22 µM
  TGI: 10.5 µM
SK-MEL-2 melanoma
  GI50: 2.67 µM
  TGI: 5.7 µM
SK-MEL-28 melanoma
  GI50: 2.01 µM
  TGI: 5.05 µM
SK-MEL-5 melanoma
  GI50: 1.77 µM
  TGI: 3.35 µM
SK-OV-3 ovarian
  GI50: 7.15 µM
  TGI: 17.4 µM
SN12C renal
  GI50: 1.82 µM
  TGI: 3.75 µM
SNB-19 CNS
  GI50: 2.25 µM
  TGI: 6.43 µM
SNB-75 CNS
  GI50: 1.48 µM
  TGI: 3.02 µM
SR leukemia
  GI50: 4.28 µM
  TGI: > 100 µM
SW-620 colon
  GI50: 4.81 µM
  TGI: 20 µM
T-47D breast
  GI50: 9.1 µM
  TGI: 27.1 µM
TK-10 renal
  GI50: 2.1 µM
  TGI: 4.79 µM
U251 CNS
  GI50: 1.91 µM
  TGI: 3.85 µM
UACC-257 melanoma
  GI50: 2.86 µM
  TGI: 13 µM
UACC-62 melanoma
  GI50: 2.2 µM
  TGI: 8.05 µM
UO-31 renal
  GI50: 2.61 µM
  TGI: 10.7 µM
